Results taken from patent US20230338362A1 (priority 2020, published 2023).
Where two headings read alike, the source gives them in different places. Peptide text beside a SMILES is read from it. * marks the point of attachment. Cbz = O=C(OCc1ccccc1)*; CH2F = FC*

Columns and labels:
[1] = test system: macrophages treated with SARS-CoV-2 Spike protein; format: cell-based, human; further: test concentration or dose not given here
[2] = test system: IRAK1, NF-κB, MAPKs, IRAK4 (MyD88 signaling); experiment: MyD88 signaling in human macrophages; format: cell-based
[3] = test system: macrophages treated with SARS-CoV-2 Spike protein; format: cell-based, human; remark: listed apart in the source; further: test concentration or dose not given here
Influenza B = experiment: In vitro activity against Influenza B, methods analogous to Example 1; format: cell-based
Influenza A = experiment: In vitro activity against Influenza A, methods analogous to Example 1; format: cell-based
MERS-CoV = format: cell-based
SARS-CoV-2 = SARS-CoV-2 inhibition, cell viability assay (CellTiter-Glo) in VERO-E6 cells enriched for ACE-2; format: cell-based
common cold coronavirus = experiment: In vitro activity against common cold coronaviruses, methods analogous to Example 1; format: cell-based
SARS-CoV = format: cell-based
[4] = test system: VERO-E6 cells enriched for angiotensin converting enzyme 2 receptor (ACE-2); experiment: In vitro toxicity, cell viability assay in VERO-E6 cells in the absence of virus; details: Table I, positive controls; absence of SARS-CoV-2 virus
[5] = human macrophages, through interaction with MyD88
[6] = Severe acute respiratory syndrome coronavirus 2, Vero C1008; Table II, antiviral compounds; VERO-E6 cells enriched for ACE-2 plus SARS-CoV-2; read-out: IC50
[7] = Severe acute respiratory syndrome coronavirus 2, Vero C1008; read-out: IC50 in an in vitro inhibition assay against SARS-CoV-2

Structure (SMILES): O=C(OC[C@H]1O[C@@H](OC(=O)c2cc(O)c(O)c(O)c2)[C@H](OC(=O)c2cc(O)c(O)c(O)c2)[C@@H](OC(=O)c2cc(O)c(O)c(O)c2)[C@@H]1OC(=O)c1cc(O)c(O)c(O)c1)c1cc(O)c(O)c(O)c1
- anti-inflammatory cytokines [1]: inducing anti-inflammatory cytokines such as IL-10
- expression of cytokine modulators / anti-inflammatory cytokines [1]: activated expression of cytokine modulators IL-10 and IFN-γ
- expression of pro-inflammatory cytokines [1]: inhibited expression of pro-inflammatory cytokines IL-1α, VEGF, IL-1β, IL-2, IL-4, IL-5, IL-6, IL-8, IL-12p70, IL-13, GM-CSF, GRO, MCP-1, MIP-1α, MIP-1β, MMP-9, RANTES, and TNF-α
- expression of the anti-inflammatory cytokine IL-10 [1]: increasing expression of the anti-inflammatory cytokine IL-10
- multiple pro-inflammatory cytokines [1]: suppressed multiple pro-inflammatory cytokines such as IL-1β, TNF-α, IL-6 IL-8, IL-12, MCP-1 and MIP-1α
- pro-inflammatory cytokines [1]: selectively inhibited pro-inflammatory cytokine, such as IL-1α, VEGF, IL-1β, IL-2, IL-4, IL-5, IL-6, IL-8, IL-12p70, IL-13, GM-CSF, GRO, MCP-1, MIP-1α, MIP-1β, MMP-9, RANTES, and TNF-α
- NF-κB translocation into the nucleus [2]: inhibited NF-κB translocation into the nucleus
- activation of IRAK1, NF-κB, and MAPKs [2, 5]: potently reduced the activation of IRAK1, NF-κB, and MAPKs
- expression of IRAK4 [2, 5]: increasing expression of IRAK4
- apoptosis by activation of caspase 3 [3]: selectively induces apoptosis
- apoptosis by caspase 3 activation [3]: not observed to induce apoptosis

Structure (SMILES): O=C(O)[C@H]1O[C@@H](Oc2cc3oc(-c4ccccc4)cc(=O)c3c(O)c2O)[C@H](O)[C@@H](O)[C@@H]1O [Baicalin, baicalin]
- activity against Influenza B (Influenza B): active
- activity against Influenza A (Influenza A): active
- activity against MERS-CoV (MERS-CoV): active
- IC50 (SARS-CoV-2; [6]): 5.96 µM
- IC50 (SARS-CoV-2; [7]): 5.96 µM
- activity against common cold coronavirus (common cold coronavirus): active
- activity against SARS-CoV (SARS-CoV): active

Structure (SMILES): CC(C)=CCc1cc(C(=O)/C=C/c2ccc(O)cc2)c(O)cc1O [Bavachalcone B]
- activity against Influenza B (Influenza B): active
- activity against Influenza A (Influenza A): active
- activity against MERS-CoV (MERS-CoV): active
- IC50 (SARS-CoV-2; [6]): 1.43 µM
- IC50 (SARS-CoV-2; [7]): 1.43 µM
- activity against common cold coronavirus (common cold coronavirus): active
- activity against SARS-CoV (SARS-CoV): active

Structure (SMILES): CC(C)C[C@H](NC(=O)OCc1ccccc1)C(=O)N[C@@H](CC(C)C)C(=O)N[C@@H](Cc1ccc(O)cc1)C(=O)CF [Calpain Inhibitor IV, reference compound] (Cbz-Leu-Leu-Tyr-CH2F)
- IC50 (SARS-CoV-2; Table I, positive controls; VERO-E6 cells enriched for ACE-2 plus SARS-CoV-2; read-out: IC50): 0.12 µM
- CC50 [4]: > 7.17 µM

Structure (SMILES): COc1ccc2cc1Oc1ccc(cc1)C[C@H]1c3c(cc4c(c3Oc3cc5c(cc3OC)CCN(C)[C@@H]5C2)OCO4)CCN1C [Cepharanthine, (14S,27S)-22,33-dimethoxy-13,28-dimethyl-2,5,7,20-tetraoxa-13,28-diazaoctacyclo[25.6.2.2^16,19.1^3,10.1^21,25.0^4,8.0^31,35.0^14,39]nonatri-aconta-1(33),3(39),4(8),9,16(38),17,19(37),21,23,25(36),31,34-dodecaene]
- activity against Influenza B (Influenza B): active
- activity against Influenza A (Influenza A): active
- activity against MERS-CoV (MERS-CoV): active
- IC50 (SARS-CoV-2; [6]): 0.51 µM
- IC50 (SARS-CoV-2; [7]): 0.51 µM
- anti-inflammatory cytokines [1]: inducing anti-inflammatory cytokines such as IL-10
- expression of cytokine modulators / anti-inflammatory cytokines [1]: activating expression of the anti-inflammatory cytokine IL-10
- expression of pro-inflammatory cytokines [1]: inhibited expression of pro-inflammatory cytokines VEGF, IL-6, IL-8, GRO, MIP-1α, MIP-1β and MMP-9
- expression of the anti-inflammatory cytokine IL-10 [1]: increasing expression of the anti-inflammatory cytokine IL-10
- multiple pro-inflammatory cytokines [1]: suppressed multiple pro-inflammatory cytokines such as IL-1β, TNF-α, IL-6 IL-8, IL-12, MCP-1 and MIP-1α
- pro-inflammatory cytokines [1]: selectively inhibited pro-inflammatory cytokine, such as VEGF, IL-6, IL-8, GRO, MIP-1α, MIP-1β and MMP-9
- activity against common cold coronavirus (common cold coronavirus): active
- apoptosis by activation of caspase 3 [3]: selectively induces apoptosis
- apoptosis by caspase 3 activation [3]: induced apoptosis
- activity against SARS-CoV (SARS-CoV): active

Structure (SMILES): CCN(CC)CCCC(C)Nc1ccnc2cc(Cl)ccc12 (centres unmarked) [Chloroquine, chloroquine, reference compound]
- CC50 [4]: > 30 µM

Structure (SMILES): CN(C)CCCSc1ccccc1NC(=O)/C=C/c1ccccc1 [Cinanserin, cinanserin]
- activity against Influenza B (Influenza B): active
- activity against Influenza A (Influenza A): active
- activity against MERS-CoV (MERS-CoV): active
- IC50 (SARS-CoV-2; [6]): 13.7 µM
- IC50 (SARS-CoV-2; [7]): 13.7 µM
- activity against common cold coronavirus (common cold coronavirus): active
- activity against SARS-CoV (SARS-CoV): active

Structure (SMILES): CCOC(=O)[C@H]1O[C@@H]1C(=O)N[C@@H](CC(C)C)C(=O)NCCC(C)C [E64d (aloxistatin), aloxistatin, reference compound]
- CC50 [4]: > 30 µM

Structure (SMILES): COc1ccc2cc1Oc1ccc(cc1)C[C@H]1c3cc(c(OC)cc3CCN1C)Oc1c(O)c(OC)cc3c1[C@H](C2)N(C)CC3 [Fangchinoline, (1S,14S)-9,20,25-trimethoxy-15,30-dimethyl-7,23-dioxa-15,30-diazaheptacyclo[22.6.2.2^3,6.1^8,12.1^14,18.0^27,31.0^22,33]hexatriaconta-3(36),4, 6(35),8,10,12(34),18,20,22(33),24,26,31-dodecaen-21-ol]
- activity against Influenza B (Influenza B): active
- activity against Influenza A (Influenza A): active
- activity against MERS-CoV (MERS-CoV): active
- IC50 (SARS-CoV-2; [6]): 2.05 µM
- IC50 (SARS-CoV-2; [7]): 2.05 µM
- expression of pro-inflammatory cytokines [1]: inhibited expression of pro-inflammatory cytokines VEGF, IL-8, MIP-1β and MMP-9
- pro-inflammatory cytokines [1]: selectively inhibited pro-inflammatory cytokines, such as VEGF, IL-8, GRO, MIP-1β and MMP-9
- activity against common cold coronavirus (common cold coronavirus): active
- apoptosis by activation of caspase 3 [3]: selectively induces apoptosis
- apoptosis by caspase 3 activation [3]: induced apoptosis
- activity against SARS-CoV (SARS-CoV): active

Structure (SMILES): COc1cc(O)cc(O)c1C(=O)/C=C/c1ccc(O)cc1 [Helichrysetin, (E)-1-(2,4-dihydroxy-6-methoxyphenyl)-3-(4-hydroxyphenyl)prop-2-en-1-one]
- activity against Influenza B (Influenza B): active
- activity against Influenza A (Influenza A): active
- activity against MERS-CoV (MERS-CoV): active
- IC50 (SARS-CoV-2; [6]): 10.4 µM
- IC50 (SARS-CoV-2; [7]): 10.4 µM
- anti-inflammatory cytokines [1]: inducing anti-inflammatory cytokines such as IL-10
- expression of cytokine modulators / anti-inflammatory cytokines [1]: activated expression of cytokine modulator IL-10
- expression of pro-inflammatory cytokines [1]: inhibited expression of pro-inflammatory cytokines IL-1α, VEGF, IL-1β, IL-4, IL-5, IL-6, IL-8, IL-12p70, IL-13, MCP-1, MIP-1α, MIP-1β, MMP-9 and TNF-α
- pro-inflammatory cytokines [1]: selectively inhibited pro-inflammatory cytokine, such as IL-1α, VEGF, IL-1β, IL-4, IL-5, IL-6, IL-8, IL-12p70, IL-13, MCP-1, MIP-1α, MIP-1β, MMP-9 and TNF-α
- activity against common cold coronavirus (common cold coronavirus): active
- apoptosis by activation of caspase 3 [3]: selectively induces apoptosis
- apoptosis by caspase 3 activation [3]: not observed to induce apoptosis
- activity against SARS-CoV (SARS-CoV): active

Structure (SMILES): CCN(CCO)CCCC(C)Nc1ccnc2cc(Cl)ccc12 (centres unmarked) [Hydroxychloroquine, hydroxychloroquine, reference compound]
- CC50 [4]: > 30 µM

Structure (SMILES): CCC(CC)COC(=O)[C@H](C)N[P@](=O)(OC[C@H]1O[C@@](C#N)(c2ccc3c(N)ncnn23)[C@H](O)[C@@H]1O)Oc1ccccc1 [Remdesivir, remdesivir, reference compound]
- CC50 [4]: > 30 µM

Structure (SMILES): O=C(/C=C/c1ccc(O)c(O)c1)O[C@H](Cc1ccc(O)c(O)c1)C(=O)O [Rosmarinic acid]
- activity against Influenza B (Influenza B): active
- activity against Influenza A (Influenza A): active
- activity against MERS-CoV (MERS-CoV): active
- IC50 (SARS-CoV-2; Severe acute respiratory syndrome coronavirus 2, Vero C1008, read-out: IC50 in an in vitro inhibition assay against SARS-CoV-2): 0.89 µM
- IC50 (SARS-CoV-2; [6]): 0.89 µM
- activity against common cold coronavirus (common cold coronavirus): active
- activity against SARS-CoV (SARS-CoV): active

Structure (SMILES): COc1ccc2cc1Oc1ccc(cc1)C[C@H]1c3cc(c(OC)cc3CCN1C)Oc1c(OC)c(OC)cc3c1[C@H](C2)N(C)CC3 [Tetrandrine, (1S,14S)-9,20,21,25-tetramethoxy-15,30-dimethyl-7,23-dioxa-15,30-diazaheptacyclo[22.6.2.2^3,6.1^8,12.1^14,18.0^27,31.0^22,33]hexatriaconta-3(36),4,6(35),8,10,12(34),18,20,22(33),24,26,31-dodecaene]
- activity against Influenza B (Influenza B): active
- activity against Influenza A (Influenza A): active
- activity against MERS-CoV (MERS-CoV): active
- anti-inflammatory cytokines [1]: inducing anti-inflammatory cytokines, such as IL-10
- expression of cytokine modulators / anti-inflammatory cytokines [1]: activating expression of the anti-inflammatory cytokine IL-10
- expression of pro-inflammatory cytokines [1]: inhibited expression of pro-inflammatory cytokines VEGF, IL-6, IL-8, MIP-1α and MIP-1β
- pro-inflammatory cytokines [1]: selectively inhibited pro-inflammatory cytokine, such as VEGF, IL-6, IL-8, MIP-1α and MIP-1β
- activity against common cold coronavirus (common cold coronavirus): active
- apoptosis by activation of caspase 3 [3]: selectively induces apoptosis
- apoptosis by caspase 3 activation [3]: induced apoptosis
- activity against SARS-CoV (SARS-CoV): active
